Experimental data from BindingDB's records for doi:10.1016/j.ejmech.2020.112549 (Sichuan University, 2020).

Legend:
[1] = Inhibition of reverse transcriptase L100I mutant in HIV-1 3B infected in human MT4 cells assessed as reduction in virus-induced cytopathic effect incubated for 5 days by MTT assay
[2] = Inhibition of reverse transcriptase E138K mutant in HIV-1 3B infected in human MT4 cells assessed as reduction in virus-induced cytopathic effect incubated for 5 days by MTT assay
[3] = Inhibition of reverse transcriptase Y181C mutant in HIV-1 3B infected in human MT4 cells assessed as reduction in virus-induced cytopathic effect incubated for 5 days by MTT assay
[4] = Inhibition of reverse transcriptase K103N mutant in HIV-1 3B infected in human MT4 cells assessed as reduction in virus-induced cytopathic effect incubated for 5 days by MTT assay
[5] = Inhibition of reverse transcriptase Y188L mutant in HIV-1 3B infected in human MT4 cells assessed as reduction in virus-induced cytopathic effect incubated for 5 days by MTT assay

SMILES	EC50 [1] [nM]	EC50 [2] [nM]	EC50 [3] [nM]	EC50 [4] [nM]	EC50 [5] [nM]
COc1cc(-c2ccc(C#N)cc2)ccc1C(O)c1ccnc(Nc2ccc(C#N)cc2)n1 (configuration not stated)	113	7.4	32		
COc1cc(-c2ccc(C#N)cc2)ccc1[C@@H](O)c1ccnc(Nc2ccc(C#N)cc2)n1	1250	196	507	438	
COc1cc(-c2ccc(C#N)cc2)ccc1[C@H](O)c1ccnc(Nc2ccc(C#N)cc2)n1	67		15	6.7	88
N#Cc1ccc(Nc2nccc(C(O)c3ccc(-c4ccc(C#N)cc4)cc3Cl)n2)cc1 (configuration not stated)	91	7.3	14	5.9	297
N#Cc1ccc(Nc2nccc([C@H](O)c3ccc(-c4ccc(C#N)cc4)cc3Cl)n2)cc1	1580	206	799	251	
N#Cc1ccc(Nc2nccc([C@@H](O)c3ccc(-c4ccc(C#N)cc4)cc3Cl)n2)cc1	53	3	14	3.2	128
N#Cc1ccc(Nc2nccc(C(O)c3ccc(-c4ccc(C#N)cc4)cc3F)n2)cc1 (configuration not stated)	902	29	112	88	4180
N#Cc1ccc(Nc2nccc([C@H](O)c3ccc(-c4ccc(C#N)cc4)cc3F)n2)cc1	3630	164	1160	736	> 30000
N#Cc1ccc(Nc2nccc([C@@H](O)c3ccc(-c4ccc(C#N)cc4)cc3F)n2)cc1	380	9.3	78	50	
Cc1cc(-c2ccc(C#N)cc2)ccc1C(O)c1ccnc(Nc2ccc(C#N)cc2)n1 (configuration not stated)	184	9.8	31	18	623
Cc1cc(-c2ccc(C#N)cc2)ccc1[C@@H](O)c1ccnc(Nc2ccc(C#N)cc2)n1	2640	149	743	479	
Cc1cc(-c2ccc(C#N)cc2)ccc1[C@H](O)c1ccnc(Nc2ccc(C#N)cc2)n1	81	5.5	19	8.6	264
N#Cc1ccc(Nc2nccc(C(O)c3ccc(-c4ccc(C#N)cc4)cc3C(F)(F)F)n2)cc1 (configuration not stated)	212	26	59	26	552
N#Cc1ccc(Nc2nccc([C@H](O)c3ccc(-c4ccc(C#N)cc4)cc3C(F)(F)F)n2)cc1	1740	933	1820	1910	> 24100
N#Cc1ccc(Nc2nccc([C@@H](O)c3ccc(-c4ccc(C#N)cc4)cc3C(F)(F)F)n2)cc1	93	9.1	30	15	318
N#Cc1ccc(Nc2nccc(C(O)c3c(F)cc(-c4ccc(C#N)cc4)cc3F)n2)cc1 (configuration not stated)	410	25	125	61	3500
N#Cc1ccc(Nc2nccc([C@H](O)c3c(F)cc(-c4ccc(C#N)cc4)cc3F)n2)cc1	1430	55	432	364	5940
N#Cc1ccc(Nc2nccc([C@@H](O)c3c(F)cc(-c4ccc(C#N)cc4)cc3F)n2)cc1	341	8.4	89	36	2250
Cc1cc(-c2ccc(C#N)cc2)cc(C)c1C(O)c1ccnc(Nc2ccc(C#N)cc2)n1 (configuration not stated)	49	16	23	7	417
Cc1cc(-c2ccc(C#N)cc2)cc(C)c1[C@@H](O)c1ccnc(Nc2ccc(C#N)cc2)n1	165	19	46	21	2200
Cc1cc(-c2ccc(C#N)cc2)cc(C)c1[C@H](O)c1ccnc(Nc2ccc(C#N)cc2)n1	20	7.2	7.4	3.9	
